Results taken from patent publication US11696928B2, “Compounds and use thereof in the expansion of stem cells and/or progenitor cells” (UNIVERSITE DE MONTREAL, priority 2017, dated 2023).

What was measured:
[1] = target: T1, AhR (Homo sapiens, UniProt P35869); assay: Inhibition of AhR-mediated gene transcription (HEK-XRE 11.1 luciferase reporter, MeBIO induction); type: cell-based; conditions: HEK-XRE 11.1 cells, MeBIO 0.1 nM, luminescence after 24 hours
T1 construct: One of the resultant clones was named HEK-XRE 11.1, and used in the reporter gene assays; endogenous in cells; host or cells: HEK-XRE 11.1 (HEK cells stably carrying the AhR-responsive luciferase reporter X4-4.27 and phRL-CMV)
T1 sequence (P35869 11-848): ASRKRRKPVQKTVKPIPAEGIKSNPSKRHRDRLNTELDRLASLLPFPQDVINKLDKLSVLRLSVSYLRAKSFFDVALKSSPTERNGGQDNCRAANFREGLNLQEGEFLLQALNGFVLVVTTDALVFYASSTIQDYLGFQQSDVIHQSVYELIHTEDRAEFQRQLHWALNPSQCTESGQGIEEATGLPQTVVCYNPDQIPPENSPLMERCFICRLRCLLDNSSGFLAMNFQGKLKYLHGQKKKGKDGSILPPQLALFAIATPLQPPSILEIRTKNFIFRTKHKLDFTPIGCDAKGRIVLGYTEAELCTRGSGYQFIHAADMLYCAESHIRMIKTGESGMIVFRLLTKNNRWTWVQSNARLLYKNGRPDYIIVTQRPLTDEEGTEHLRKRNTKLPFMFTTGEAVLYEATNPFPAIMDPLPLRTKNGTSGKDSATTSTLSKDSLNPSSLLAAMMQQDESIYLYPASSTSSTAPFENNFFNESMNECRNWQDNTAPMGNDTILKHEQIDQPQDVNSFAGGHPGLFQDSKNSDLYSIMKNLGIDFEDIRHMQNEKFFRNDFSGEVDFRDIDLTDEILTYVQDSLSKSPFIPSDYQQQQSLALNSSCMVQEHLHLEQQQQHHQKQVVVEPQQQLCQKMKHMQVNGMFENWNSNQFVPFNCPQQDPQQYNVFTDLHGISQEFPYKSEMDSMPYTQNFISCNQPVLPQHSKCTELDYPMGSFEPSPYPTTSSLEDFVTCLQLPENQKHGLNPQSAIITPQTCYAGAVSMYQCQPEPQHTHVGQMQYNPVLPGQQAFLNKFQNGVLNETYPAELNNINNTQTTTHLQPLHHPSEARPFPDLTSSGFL
Method: HEK cells line was transfected with an AhR-responsive firefly luciferase reporter gene X4-4.27 and the stable transfectants generated were again transfected with phRL-CMV (a Renilla luciferase expression vector; Promega) along with pBAsi-hU6 Pur DNA (a plasmid carrying the puromycin-resistant gene; TaKaRa, Shiga, Japan), and maintained in the presence of both hygromycin B and puromycin (2 mg/mL). One of the resultant clones was named HEK-XRE 11.1, and used in the reporter gene assays.
HEK-XRE 11.1 cells were plated in 384-well plates at a density of 25,000 cells in 50 uL volume per well. The induction of ARh pathway was done by addition of MeBIO at 0.1 nM concentration. ARh antagonist compounds were then added to seeded cells in serial dilutions (8 dilutions, 1:[…] down to 5 nM) in duplicate wells. Renilla expression was not used as internal control. On each plate, Compound 1001 and SR1 were added as dose control (8 dilutions, 1:3, 5 mM down to 2.5 nM for SR1 and 2 mM down to 1 nM for compound 1001). Luminescence activity was evaluated after 24 hours culture using Lumi-384-CellTiterGlo-Corning protocol. Dose-response curves were generated using nonlinear regression in Excel.

[2] = tested on: Human CD34+ cord blood (CB) cells; assay: CD34+ activity assessment (7-day expansion of pre-expanded CD34+ cells, flow cytometry); type: cell-based; conditions: concentration at which compound/vehicle ratio of CD34+ cell number is >= 1.5; 7 days, with 35 nM UM0128171; Table 1
Method: Human CD34+ cord blood (CB) cells were isolated from fresh units using RosetteSep™ 0034 pre-enrichment cocktail followed by CD34 positive selection using EasySep Kit™ (StemCell Technologies). The cells were then pre-expanded in bulk, by culturing at 37° C. for 6 days in HSC expansion media consisting of StemSpan ACF (StemCell Technologies) supplemented with 100 ng/mL Stem Cell Factor (SCF, Shenandoah), 100 ng/mL FMS-like Tyrosine Kinase 3 Ligand (FLT3L, Shenandoah), 50 ng/mL Thrombopoietin (TPO, Shenandoah), 2 mM GlutaMAX™ (Invitrogen), 10 μg/mL low density lipoproteins (LDL, StemCell Technologies), 10 μg/mL Ciprofloxacin and 35 nM UM0128171. […] Following the pre-expansion, cells were harvested, aliquoted and frozen until use.
For each activity assessment, CD34+ pre-expanded cells (approximately 2000 per well in a 384-well plate) were cultured in HSC expansion media, in the presence of 35 nM UM0128171. Compounds were serially diluted (1/2) in DMSO (10 dilutions per compound) and added to the cells in order to achieve a 1/1000 final dilution. StemRegenin1 (SR1) and/or Compound 1001 were included in all experiments as controls to monitor assay performance. The plate was incubated at 37° C. for 7 days in static conditions (i.e. no shaking and no addition of media). Flow cytometry analysis was performed at the end of the 7-day expansion. Cells were stained with PE-labeled anti-human CD45RA (BD Biosciences) and APC-labeled anti-human CD34 (BD Biosciences) and analyzed using Intellicyt IQue cytometer equipped with ForeCyt software. Gates were drawn around the populations of interest to obtain cell numbers and relative proportions. The EC1.5 value, which is the concentration at which the compound/vehicle ratio is greater or equal to 1.5, was calculated by plotting the CD34+ cell number against concentrations (log-scale) in a 4-PL curve and fitting the curve using IDBS XLfit (set model 251) in Microsoft Excel.

| SMILES | IC50 ([1]; Table 1) [nM] | EC1.5 [2] [nM] | IC50 ([1]; Table 2) [nM] |
| --- | --- | --- | --- |
| Nc1c(C(=O)Nc2ccc(F)cc2)sc2nc3c(cc12)CCC3 [Compound 1002] | < 50 | – | – |
| Nc1c(C(=O)Nc2ccccc2)sc2ncc(Br)cc12 [Compound 1003] | < 50 | – | – |
| Nc1c(C(=O)Nc2ccccc2)sc2ncc(Cl)cc12 [Compound 1004] | < 50 | 100 to 1000 | – |
| Cc1cc2c(N)c(C(=O)Nc3ccccc3)sc2nc1C [Compound 1005] | 50 to 500 | 100 to 1000 | – |
| Nc1c(C(=O)Nc2cccnc2)sc2nc3c(cc12)CCC3 [Compound 1006] | 50 to 500 | 1000 to 5000 | – |
| Nc1c(C(=O)Nc2ccccn2)sc2nc3c(cc12)CCC3 [Compound 1007] | < 50 | 100 to 1000 | – |
| Nc1c(C(=O)Nc2ccccc2)sc2ncc(C(F)(F)F)cc12 [Compound 1008] | > 500 | 100 to 1000 | – |
| Cc1cnc2sc(C(=O)Nc3ccccc3)c(N)c2c1 [Compound 1009] | < 50 | – | – |
| Nc1c(C(=O)Nc2ccccc2)sc2ncc(F)cc12 [Compound 1010] | 50 to 500 | >5000 | – |
| Nc1c(C(=O)Nc2ccncc2)sc2ncc(Cl)cc12 [Compound 1011] | < 50 | 1000 to 5000 | – |
| Nc1c(C(=O)Nc2ccncc2)sc2ncc(Br)cc12 [Compound 1012] | 50 to 500 | – | – |
| Nc1c(C(=O)Nc2ccncc2)sc2ncc(C(F)(F)F)cc12 [Compound 1013] | > 500 | 100 to 1000 | – |
| Nc1c(C(=O)Nc2ccncc2)sc2nc3c(cc12)CCC3 [Compound 1014] | 50 to 500 | 1000 to 5000 | – |
| Nc1c(C(=O)Nc2cccnc2)sc2ncc(C(F)(F)F)cc12 [Compound 1015] | > 500 | 100 to 1000 | – |
| N#Cc1cnc2sc(C(=O)Nc3ccccc3)c(N)c2c1 [Compound 1016] | > 500 | 100 to 1000 | – |
| Nc1c(C(=O)Nc2ccc(CCO)cc2)sc2ncc(C(F)(F)F)cc12 [Compound 1017] | 50 to 500 | 100 to 1000 | – |
| COCc1ccc(NC(=O)c2sc3ncc(C(F)(F)F)cc3c2N)cc1 [Compound 1018] | < 50 | 1000 to 5000 | – |
| Nc1c(C(=O)Nc2ccc(CO)cc2)sc2ncc(C(F)(F)F)cc12 [Compound 1019] | > 500 | >5000 | – |
| C#Cc1cnc2sc(C(=O)Nc3ccncc3)c(N)c2c1 [Compound 1020] | 50 to 500 | – | – |
| CCc1cnc2sc(C(=O)Nc3ccncc3)c(N)c2c1 [Compound 1021] | 50 to 500 | – | – |
| Nc1c(C(=O)Nc2ccccn2)sc2ncc(C(F)(F)F)cc12 [Compound 1022] | < 50 | 100 to 1000 | – |
| Cc1cnc(NC(=O)c2sc3ncc(C(F)(F)F)cc3c2N)s1 [Compound 1023] | 50 to 500 | >5000 | – |
| CCc1ccc(NC(=O)c2sc3ncc(C(F)(F)F)cc3c2N)cc1 [Compound 1024] | < 50 | 100 to 1000 | – |
| Nc1c(C(=O)Nc2ccccc2)sc2cnc(C(F)(F)F)cc12 [Compound 1025] | < 50 | 100 to 1000 | – |
| Nc1c(C(=O)Nc2ccncc2)sc2cnc(C(F)(F)F)cc12 [Compound 1026] | 50 to 500 | 1000 to 5000 | – |

| SMILES | IC50 ([1]; Table 1) [nM] | EC1.5 [2] [nM] | IC50 ([1]; Table 2) [nM] |
| --- | --- | --- | --- |
| Nc1c(C(=O)Nc2ccccc2)sc2ccc(C(F)(F)F)nc12 [Compound 1027] | < 50 | >5000 | – |
| Nc1c(C(=O)Nc2ccncc2)sc2ccc(C(F)(F)F)nc12 [Compound 1028] | 50 to 500 | >5000 | – |
| Nc1c(C(=O)Nc2ccc3ncsc3c2)sc2ncc(C(F)(F)F)cc12 [Compound 1029] | 50 to 500 | 100 to 1000 | – |
| Nc1c(C(=O)Nc2ccc(-c3ccccc3)cc2)sc2ncc(C(F)(F)F)cc12 [Compound 1030] | 50 to 500 | >5000 | – |
| Nc1c(C(=O)Nc2ccc(OCc3ccccc3)cc2)sc2ncc(C(F)(F)F)cc12 [Compound 1031] | 50 to 500 | 100 to 1000 | – |
| CCOC(=O)Cc1ccc(NC(=O)c2sc3ncc(C(F)(F)F)cc3c2N)cc1 [Compound 1032] | 50 to 500 | 1000 to 5000 | – |
| COc1ccc(NC(=O)c2sc3ncc(C(F)(F)F)cc3c2N)cc1-c1ccccc1 [Compound 1033] | 50 to 500 | 100 to 1000 | – |
| Nc1c(C(=O)Nc2ccccc2)sc2ccc(C(F)(F)F)cc12 [Compound 1034] | < 50 | 100 to 1000 | – |
| Nc1c(C(=O)Nc2ccncc2)sc2ccc(C(F)(F)F)cc12 [Compound 1035] | < 50 | 100 to 1000 | – |
| Nc1c(C(=O)Nc2cccc(Br)c2)sc2ncc(C(F)(F)F)cc12 [Compound 1036] | < 50 | 100 to 1000 | – |
| Nc1c(C(=O)Nc2ccc(Br)cc2)sc2ncc(C(F)(F)F)cc12 [Compound 1037] | < 50 | – | – |
| N#CCc1ccc(NC(=O)c2sc3ncc(C(F)(F)F)cc3c2N)cc1 [Compound 1038] | < 50 | >5000 | – |
| Nc1c(C(=O)Nc2ccc(Br)cc2)sc2cnc(C(F)(F)F)cc12 [Compound 1049] | 50 to 500 | – | – |
| Nc1c(C(=O)Nc2ccc(-c3cccnc3)cc2)sc2ncc(C(F)(F)F)cc12 [Compound 1055] | 50 to 500 | – | – |
| Nc1c(C(=O)Nc2ccc(F)cc2)sc2ncc(C(F)(F)F)cc12 [Compound 1060] | < 50 | – | – |
| C=C(C)c1cnc2sc(C(=O)Nc3ccccc3)c(N)c2c1 [Compound 1090] | < 50 | – | – |
| CC(C)c1cnc2sc(C(=O)Nc3ccccc3)c(N)c2c1 [Compound 1103] | < 50 | – | – |
| C=CCc1cnc2sc(C(=O)Nc3ccccc3)c(N)c2c1 [Compound 1111] | 50 to 500 | – | – |
| CCc1cnc2sc(C(=O)Nc3ccccc3)c(N)c2c1 [Compound 1112] | 50 to 500 | – | – |
| Cc1ccc2sc(C(=O)Nc3ccccc3)c(N)c2c1 [Compound 1118] | < 50 | – | – |
| Nc1c(C(=O)Nc2ccc(F)cn2)sc2ncc(C(F)(F)F)cc12 [Compound 1128] | – | 100 to 1000 | – |
| CSc1ccc(NC(=O)c2sc3ncc(C(F)(F)F)cc3c2N)cc1 [Compound 1133] | < 50 | – | – |
| CCCc1cnc2sc(C(=O)Nc3ccccc3)c(N)c2c1 [Compound 1134] | < 50 | – | – |
| Nc1c(C(=O)Nc2ccccc2)oc2nc3c(cc12)CCC3 [Compound 1153] | – | – | 50 to 500 |
